Measurements taken from ChEMBL document CHEMBL1140059, “Discovery of potent and selective small-molecule PAR-2 agonists” (J Med Chem, 2008).
Activity calls are given as the source filed them. No cut-off for these calls is given here. Square brackets hold non-standard residues; d marks the D form. Peptide text beside a SMILES is read from it. * marks the point of attachment. Orn = NCCC[C@H](N)C(=O)O; 2Furoyl = O=C(c1ccco1)*

Key:
[1] = Solubility in presence of 25% Tween; format: physicochemical
[2] = molecular target: T1, Proteinase-activated receptor 2 (Homo sapiens, UniProt P55085); test: Agonist activity at human PAR2 expressed in HEK293T cells assessed as effect on intracellular calcium mobilization by R-SAT assay; format: functional, cell-based, HEK-293T
T1 sequence (P55085 whole entry): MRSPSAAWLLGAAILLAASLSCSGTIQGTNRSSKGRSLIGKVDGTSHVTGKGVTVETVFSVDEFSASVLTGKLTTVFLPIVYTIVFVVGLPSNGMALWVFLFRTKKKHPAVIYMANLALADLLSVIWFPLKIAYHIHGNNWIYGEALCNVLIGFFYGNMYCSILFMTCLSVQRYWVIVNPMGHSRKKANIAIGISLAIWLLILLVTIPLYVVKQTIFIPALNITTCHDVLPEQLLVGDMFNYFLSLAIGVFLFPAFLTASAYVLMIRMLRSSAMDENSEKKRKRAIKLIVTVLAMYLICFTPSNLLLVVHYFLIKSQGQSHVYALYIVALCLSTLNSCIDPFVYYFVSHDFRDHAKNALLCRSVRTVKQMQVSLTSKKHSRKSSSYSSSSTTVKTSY

[3] = Metabolic stability in human liver microsomes assessed as intrinsic clearance; format: ADME, Microsome
[4] = Metabolic stability in rat liver microsomes assessed as intrinsic clearance; format: ADME, Microsome
[5] = molecular target: Proteinase-activated receptor 2 (Homo sapiens) (UniProt P55085); test: Agonist activity at human PAR2 expressed in HEK293T cells assessed as effect on intracellular calcium mobilization by R-SAT assay relative to SLIGRL-NH2; format: functional, cell-based; conditions: HEK-293T
[6] = molecular target: T2, Proteinase-activated receptor 4 (Homo sapiens) (UniProt Q96RI0); test: Agonist activity at PAR4; format: functional
T2 sequence (whole entry): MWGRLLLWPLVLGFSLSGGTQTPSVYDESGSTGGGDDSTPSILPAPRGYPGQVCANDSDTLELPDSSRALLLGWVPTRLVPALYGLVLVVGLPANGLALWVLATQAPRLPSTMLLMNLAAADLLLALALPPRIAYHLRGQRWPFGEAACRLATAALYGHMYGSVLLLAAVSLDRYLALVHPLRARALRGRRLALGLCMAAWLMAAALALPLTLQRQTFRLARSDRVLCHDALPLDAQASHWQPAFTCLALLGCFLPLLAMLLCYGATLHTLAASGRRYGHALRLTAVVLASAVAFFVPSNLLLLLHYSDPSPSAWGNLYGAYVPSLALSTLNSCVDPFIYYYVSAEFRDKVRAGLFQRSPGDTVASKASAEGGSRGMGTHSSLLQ

[7] = molecular target: Proteinase-activated receptor 2 (Homo sapiens) (UniProt P55085); test: Agonist activity at human PAR2 expressed in HEK293T cells assessed as effect on phosphatidyl inositol hydrolysis; format: functional, cell-based; conditions: HEK-293T
Rattus norvegicus [8] = test: Induction of inflammation assessed as incidence of paw edema in intrapaw dosed rat; format: functional, organism-based
[9] = molecular target: T3, Proteinase-activated receptor 3 (Homo sapiens) (UniProt O00254); test: Agonist activity at PAR3; format: functional
T3 sequence (whole entry): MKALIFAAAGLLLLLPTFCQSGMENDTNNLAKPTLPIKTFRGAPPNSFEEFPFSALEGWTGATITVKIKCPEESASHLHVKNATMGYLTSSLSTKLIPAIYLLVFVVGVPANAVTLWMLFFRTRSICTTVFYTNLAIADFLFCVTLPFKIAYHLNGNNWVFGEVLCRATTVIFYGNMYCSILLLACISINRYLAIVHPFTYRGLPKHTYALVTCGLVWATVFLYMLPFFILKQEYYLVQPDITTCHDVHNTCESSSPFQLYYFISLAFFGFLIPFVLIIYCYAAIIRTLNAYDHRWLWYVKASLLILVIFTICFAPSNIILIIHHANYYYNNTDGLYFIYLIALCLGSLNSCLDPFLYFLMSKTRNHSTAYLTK

[10] = molecular target: T4, Proteinase-activated receptor 1 (Homo sapiens) (UniProt P25116); test: Agonist activity at PAR1; format: functional
T4 sequence (whole entry): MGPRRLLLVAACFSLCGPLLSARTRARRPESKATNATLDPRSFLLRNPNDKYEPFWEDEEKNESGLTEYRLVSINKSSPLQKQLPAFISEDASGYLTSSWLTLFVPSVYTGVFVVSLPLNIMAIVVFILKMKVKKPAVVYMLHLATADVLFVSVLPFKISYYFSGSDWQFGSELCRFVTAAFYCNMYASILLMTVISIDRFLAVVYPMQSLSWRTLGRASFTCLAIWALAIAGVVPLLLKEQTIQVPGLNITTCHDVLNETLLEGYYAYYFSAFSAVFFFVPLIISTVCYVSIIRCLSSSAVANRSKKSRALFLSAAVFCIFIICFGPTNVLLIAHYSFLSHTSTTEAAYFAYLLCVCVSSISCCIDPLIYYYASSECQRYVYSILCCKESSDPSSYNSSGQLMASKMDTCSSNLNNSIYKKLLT

Rattus norvegicus [11] = test: Induction nociception assessed as incidence of thermal hyperalgesia in intrapaw dosed rat; format: functional, organism-based

| Compound | EC50 [2] | Efficacy [5] | also measured |
| --- | --- | --- | --- |
| C/C(=N\NC(=O)[C@@H]1C(=O)NC[C@H]1c1ccccc1)c1cccc(Br)c1 (stereo in doubt; 3) [listing 1 of 2 here] | 31.6 nM |  | solubility [1]: > 2000 µg/mL; microsomal CLint [3]: 9 µL/min/mg; microsomal CLint [4]: 37 µL/min/mg |
| C/C(=N\NC(=O)[C@@H]1C(=O)NC[C@H]1c1ccccc1)c1cccc(Br)c1 (stereo in doubt; (+)-3) [listing 1 of 2 here] |  | 91% |  |
| H-SLIGRL-NH2 | 10000 nM | 100% |  |
| C/C(=N\NC(=O)[C@@H]1C(=O)NC[C@H]1c1ccccc1)c1cccc(Br)c1 (stereo in doubt; (-)-3) [listing 1 of 2 here] |  | 10% |  |
| CC[C@H](C)[C@H](NC(=O)[C@H](CC(C)C)NC(=O)c1ccco1)C(=O)NCC(=O)N[C@@H](CCCNC(=N)N)C(=O)N[C@@H](CC(C)C)C(=O)N[C@@H](CCCN)C(N)=O (2Furoyl-LIGRL[Orn]-NH2) |  | 89% |  |
| CC[C@H](C)[C@H](NC(=O)[C@H](CC(C)C)NC(=O)c1ccco1)C(=O)NCC(=O)N[C@@H](CCCN=C(N)N)C(=O)N[C@@H](CC(C)C)C(=O)N[C@@H](CCCN)C(N)=O (2Furoyl-LIGRL[Orn]-NH2) | 25.1 nM |  |  |
| C/C(=N\NC(=O)[C@@H]1C(=O)NC[C@H]1c1ccccc1)c1cccc(Br)c1 (stereo in doubt; 3) [listing 2 of 2 here] |  | 93% | Activity [6]: inactive; Activity [7]: Active; Activity (Rattus norvegicus [8]): Dose-dependent effect; Activity [9]: inactive; Activity [10]: inactive; Activity (Rattus norvegicus [11]): Dose-dependent effect |
| C/C(=N\NC(=O)[C@@H]1C(=O)NC[C@H]1c1cccc(Br)c1)c1cccc(Br)c1 | 25.1 nM | 82% |  |
| O=C1NC[C@@H](c2ccccc2)[C@@H]1C(=O)N/N=C1\CCc2ccc(Br)cc21 | 126 nM | 62% |  |
| C/C(=N\NC(=O)[C@@H]1C(=O)NC[C@H]1c1ccccc1)c1cccc(Br)c1 (stereo in doubt; (-)-3) [listing 2 of 2 here] | > 10000 nM |  |  |
| C/C(=N\NC(=O)[C@@H]1C(=O)NC[C@H]1c1ccccc1)c1cccs1 | 6310 nM | 30% |  |
| CC(C)=CN1C[C@@H](c2ccccc2)[C@H](C(=O)N/N=C(\C)c2cccc(Br)c2)C1=O | 50.1 nM | 72% |  |
| C/C(=N\NC(=O)[C@@H]1C(=O)NC[C@H]1c1ccccc1)c1cccc(Br)c1 (stereo in doubt; (+)-3) [listing 2 of 2 here] | 31.6 nM |  |  |
| C/C(=N\NC(=O)C(NC(=O)c1ccccc1)c1n[nH]c(=O)c2ccccc12)c1cccc(Br)c1 (stereo not given) | 200 nM | 81% | Activity [6]: inactive; Activity [7]: Active; microsomal CLint [3]: 19 µL/min/mg; Activity (Rattus norvegicus [8]): Dose-dependent effect; Activity [9]: inactive; Activity [10]: inactive; microsomal CLint [4]: 6 µL/min/mg; Activity (Rattus norvegicus [11]): Dose-dependent effect |
| C/C(=N\NC(=O)[C@@H]1C(=O)NC[C@H]1c1ccccc1)c1ccc(Br)s1 | 2510 nM | 49% |  |
| C/C(=N\N(C)C(=O)[C@@H]1C(=O)NC[C@H]1c1ccccc1)c1cccc(Br)c1 | 6310 nM | 35% |  |
| C/C(=N\NC(=O)[C@@H]1C(=O)NC[C@H]1c1ccccc1)c1ccccc1Br | 10000 nM | 11% |  |
| C/C(=N\NC(=O)[C@@H]1C(=O)NC[C@H]1c1ccccc1)c1ccc(Br)cc1 | 7940 nM | 32% |  |
